“And” between values parts separate entries of the source, which are not always exact repeats. Equal values may be shown once. Toxic doses and inconclusive results are not listed.
Test system: BDF1 mice, P388 leukemia ip, median survival T/C
Experiment: NCI In Vivo Anticancer Drug Screen. Data for tumor model P388 Leukemia (intraperitoneal) in B6D2F1 (BDF1) mice
Settings: endpoint: median survival time, higher = longer survival
Outline: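 Transplantable tumour in mice; compound vs vehicle dosing; survival scored; ratio of treated to control reported.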

[1] = dose: 100.0 mg/kg/injection, schedule: Q04DX003 (ip), vehicle: saline
[2] = dose: 50.0 mg/kg/injection, schedule: Q04DX003 (ip), vehicle: saline with Tween-80
[3] = dose: 100.0 mg/kg/injection, schedule: Q04DX003 (ip), vehicle: saline with Tween-80
[4] = dose: 200.0 mg/kg/injection, schedule: Q04DX003 (ip), vehicle: saline with Tween-80
[5] = dose: 100.0 mg/kg/injection, schedule: Q01DX009 (ip), vehicle: water
[6] = dose: 200.0 mg/kg/injection, schedule: Q01DX009 (ip), vehicle: water
[7] = dose: 400.0 mg/kg/injection, schedule: Q01DX009 (ip), vehicle: water
[8] = dose: 0.5 mg/kg/injection, schedule: Q01DX009 (ip), vehicle: saline
[9] = dose: 1.0 mg/kg/injection, schedule: Q01DX009 (ip), vehicle: saline
[10] = dose: 1.0 mg/kg/injection, schedule: Q04DX003 (ip), vehicle: saline
[11] = dose: 2.0 mg/kg/injection, schedule: Q04DX003 (ip), vehicle: saline
[12] = dose: 100.0 mg/kg/injection, schedule: Q01DX009 (ip), vehicle: saline with Tween-80
[13] = dose: 200.0 mg/kg/injection, schedule: Q01DX009 (ip), vehicle: saline with Tween-80
[14] = dose: 400.0 mg/kg/injection, schedule: Q04DX003 (ip), vehicle: saline with Tween-80

With `CC1CN1P(=O)(N1CC=CCC1)N1CC1C` (centres undefined) the T/C (dose: 9.38 mg/kg/injection, schedule: Q01DX009 (ip), vehicle: saline) was 112 % of control, the T/C (dose: 18.7 mg/kg/injection, schedule: Q01DX009 (ip), vehicle: saline) was 116 % of control and the T/C (dose: 50.0 mg/kg/injection, schedule: Q01DX009 (ip), vehicle: saline) was 162 % of control. The T/C (dose: 75.0 mg/kg/injection, schedule: Q01DX009 (ip), vehicle: saline) was 91 % of control and the T/C [1] was 107 % of control.
For `CCCCOC1OC[N+](C)(C)CC1(C)C` (centres undefined), the T/C (dose: 25.0 mg/kg/injection, schedule: Q04DX003 (ip), vehicle: saline with Tween-80) was 102 % of control, the T/C [2] was 105 % of control and the T/C [3] was 100 % of control and 105 % of control.
With `O=C(O)c1cc(Br)c(Br)s1` the T/C [2] was 91 % of control, the T/C [3] was 100 % of control and the T/C [4] was 112 % of control.
`CCOc1ccn(CC(=O)N2CCOCC2)c(=O)n1` was tested, and the T/C [5] was 103 % of control, the T/C [6] was 105 % of control and the T/C [7] was 97 % of control.
With `OCC(O)C(O)C(O)C(O)CO` (centres undefined) the T/C (dose: 100.0 mg/kg/injection, schedule: Q01DX010 (ip), vehicle: carboxymethylcellulose (CMC)) was 100 % of control, the T/C (dose: 100.0 mg/kg/injection, schedule: Q01DX010 (ip), vehicle: saline) was 95 % of control and the T/C (dose: 400.0 mg/kg/injection, schedule: Q01DX010 (ip), vehicle: carboxymethylcellulose (CMC)) was 100 % of control. For the same molecule, the T/C (dose: 400.0 mg/kg/injection, schedule: Q01DX010 (ip), vehicle: saline) was 105 % of control and 110 % of control.
In the case of `CO[C@H]1C[C@H](O[C@H]2CC[C@]3(C=O)[C@H]4CC[C@]5(C)[C@@H](C6=CC(=O)OC6)CC[C@]5(O)[C@@H]4CC[C@]3(O)C2)O[C@H](C)[C@H]1O[C@@H]1O[C@H](CO)[C@@H](O)[C@H](O)[C@H]1O`, the T/C (dose: 0.25 mg/kg/injection, schedule: Q01DX009 (ip), vehicle: saline) is reported as 104 % of control, the T/C (dose: 0.25 mg/kg/injection, schedule: Q04DX003 (ip), vehicle: saline) is reported as 91 % of control and the T/C [8] is reported as 100 % of control. The T/C (dose: 0.5 mg/kg/injection, schedule: Q04DX003 (ip), vehicle: saline) was 104 % of control, the T/C [9] was 90 % of control and the T/C (dose: 1.0 mg/kg/injection, schedule: Q01DX010 (ip), vehicle: saline) was 95 % of control. For the same molecule, the T/C [10] was 100 % of control and the T/C [11] was 100 % of control.
With `COc1ccc2nc3cc(Cl)ccc3c(Nc3ccc(O)c(CN(CCCl)CCCl)c3)c2c1` the T/C (dose: 0.06 mg/kg/injection, schedule: Q01DX009 (ip), vehicle: saline with Tween-80) was 105 % of control, the T/C (dose: 0.09 mg/kg/injection, schedule: Q01DX009 (ip), vehicle: saline with Tween-80) was 99 % of control and the T/C (dose: 0.13 mg/kg/injection, schedule: Q01DX009 (ip), vehicle: saline with Tween-80) was 89 % of control. The T/C (dose: 0.22 mg/kg/injection, schedule: Q04DX003 (ip), vehicle: saline) was 100 % of control, the T/C (dose: 0.33 mg/kg/injection, schedule: Q04DX003 (ip), vehicle: saline) was 118 % of control and the T/C [8] was 177 % of control. The T/C [9] was 163 % of control, the T/C [10] was 159 % of control and the T/C (dose: 1.33 mg/kg/injection, schedule: Q04DX003 (ip), vehicle: saline) was 154 % of control. The T/C (dose: 2.0 mg/kg/injection, schedule: Q01DX009 (ip), vehicle: saline) was 104 % of control, the T/C [11] was 158 % of control and 181 % of control and the T/C (dose: 3.0 mg/kg/injection, schedule: Q04DX003 (ip), vehicle: saline) was 158 % of control and 179 % of control. For the same molecule, the T/C (dose: 4.5 mg/kg/injection, schedule: Q04DX003 (ip), vehicle: saline) was 195 % of control, the T/C (dose: 6.7 mg/kg/injection, schedule: Q04DX003 (ip), vehicle: saline) was 179 % of control and the T/C (dose: 10.0 mg/kg/injection, schedule: Q04DX003 (ip), vehicle: saline) was 183 % of control.
For `CC(=O)[C@H]1CC[C@H]2[C@@H]3CCC4=CC(=O)[C@H](C)C[C@]4(C)[C@@]3(F)C(=O)C[C@]12C`, the T/C [12] was 95 % of control, the T/C [3] was 120 % of control and the T/C [13] was 90 % of control. The T/C [4] was 110 % of control and the T/C [14] was 100 % of control.
`Cc1ncc2n1C=CN(C(=O)c1ccc([N+](=O)[O-])cc1)C2O` (centres undefined) was tested, and the T/C (dose: 50.0 mg/kg/injection, schedule: Q01DX009 (ip), vehicle: water) was 103 % of control, the T/C [5] was 94 % of control and the T/C (dose: 100.0 mg/kg/injection, schedule: Q04DX003 (ip), vehicle: water) was 102 % of control. The T/C [6] was 93 % of control, the T/C (dose: 200.0 mg/kg/injection, schedule: Q04DX003 (ip), vehicle: water) was 93 % of control and the T/C [7] was 94 % of control. The T/C (dose: 400.0 mg/kg/injection, schedule: Q04DX003 (ip), vehicle: water) was 98 % of control.
In the case of `O=S(=O)(Nc1ccc(-c2ccccc2)cc1)c1ccccc1`, the T/C (dose: 50.0 mg/kg/injection, schedule: Q01DX009 (ip), vehicle: saline with Tween-80) is reported as 108 % of control, the T/C [12] is reported as 101 % of control and the T/C [13] is reported as 101 % of control. The T/C (dose: 400.0 mg/kg/injection, schedule: Q01DX009 (ip), vehicle: saline with Tween-80) was 106 % of control.
With `CC(=O)CC(=O)NC(C)CCc1ccccc1` (centres undefined) the T/C [3] was 104 % of control, the T/C [4] was 109 % of control and the T/C [14] was 109 % of control.
For `CC(C)NC(=O)c1ccccc1S(=O)(=O)c1ccccc1C(=O)NC(C)C`, the T/C (dose: 100.0 mg/kg/injection, schedule: Q01DX001 (ip), vehicle: saline with Tween-80) was 108 % of control, the T/C (dose: 200.0 mg/kg/injection, schedule: Q01DX001 (ip), vehicle: saline with Tween-80) was 100 % of control and the T/C (dose: 400.0 mg/kg/injection, schedule: Q01DX001 (ip), vehicle: saline with Tween-80) was 100 % of control.
With `CNc1cc(C(C)C)ccc1C` the T/C (dose: 32.5 mg/kg/injection, schedule: Q01DX009 (sc), vehicle: olive oil, sesame oil, peanut oil) was 104 % of control, the T/C (dose: 65.0 mg/kg/injection, schedule: Q01DX009 (sc), vehicle: olive oil, sesame oil, peanut oil) was 104 % of control and the T/C (dose: 100.0 mg/kg/injection, schedule: Q04DX003 (sc), vehicle: olive oil, sesame oil, peanut oil) was 104 % of control. The T/C (dose: 130.0 mg/kg/injection, schedule: Q01DX009 (sc), vehicle: olive oil, sesame oil, peanut oil) was 100 % of control, the T/C (dose: 200.0 mg/kg/injection, schedule: Q04DX003 (sc), vehicle: olive oil, sesame oil, peanut oil) was 109 % of control and the T/C (dose: 400.0 mg/kg/injection, schedule: Q04DX003 (sc), vehicle: olive oil, sesame oil, peanut oil) was 118 % of control.
In the case of `COc1cc(OC)c2c(O)c3c(c(-c4ccc5cc6c(c(O)c5c4O)C(=O)CC(C)(O)C6)c2c1)CC(C)OC3C` (centres undefined), the T/C (dose: 0.19 mg/kg/injection, schedule: Q01DX009 (ip), vehicle: olive oil, sesame oil, peanut oil) is reported as 106 % of control, the T/C (dose: 0.39 mg/kg/injection, schedule: Q01DX009 (ip), vehicle: olive oil, sesame oil, peanut oil) is reported as 91 % of control and the T/C (dose: 0.78 mg/kg/injection, schedule: Q01DX009 (ip), vehicle: olive oil, sesame oil, peanut oil) is reported as 106 % of control. For the same molecule, the T/C (dose: 1.56 mg/kg/injection, schedule: Q01DX009 (ip), vehicle: olive oil, sesame oil, peanut oil) was 102 % of control and 111 % of control.
`C[N+](C)(C)CC[N+](C)(C)C` was tested, and the T/C (dose: 100.0 mg/kg/injection, schedule: Q01DX009 (ip), vehicle: saline) was 93 % of control, the T/C [1] was 93 % of control and the T/C (dose: 200.0 mg/kg/injection, schedule: Q01DX009 (ip), vehicle: saline) was 101 % of control. For the same molecule, the T/C (dose: 200.0 mg/kg/injection, schedule: Q04DX003 (ip), vehicle: saline) was 118 % of control, the T/C (dose: 400.0 mg/kg/injection, schedule: Q01DX009 (ip), vehicle: saline) was 93 % of control and the T/C (dose: 400.0 mg/kg/injection, schedule: Q04DX003 (ip), vehicle: saline) was 107 % of control.
